Earlier results in US20050058670A1, “Oral itraconazole composition which is not affected by ingested food and process for preparing same” (priority 2003, published 2005).

In the case of CCC(C)n1ncn(-c2ccc(N3CCN(c4ccc(OCC5COC(Cn6cncn6)(c6ccc(Cl)cc6Cl)O5)cc4)CC3)cc2)c1=O (stereo not shown) [Itraconazole], the solubility in water is listed as “less than 1 μg/ml”.
